Values quoted from earlier work in patent publication US20110166187A1, “METHODS OF USING SUSTAINED RELEASE AMINOPYRIDINE COMPOSITIONS” (priority 2004, published 2011).

Test system: voltage dependent, neuronal potassium channels

Nc1ccncc1 [fampridine, 4-aminopyridine]
concentrations at which it appears to be a specific blocker of voltage dependent, neuronal potassium channels: 1 to 2 µM
